Laboratory results taken from the supplement of paper PMC10307832.

Legend:
Experiment in all cases: relative viability (nuclei count vs DMSO), 5 days (fraction); higher = more cells survive
Etoposide + AZD7762 = compound: COc1cc([C@@H]2c3cc4c(cc3[C@@H](O[C@@H]3O[C@@H]5CO[C@@H](C)O[C@H]5[C@H](O)[C@H]3O)[C@H]3COC(=O)[C@H]23)OCO4)cc(OC)c1O [Etoposide] + NC(=O)Nc1cc(-c2cccc(F)c2)sc1C(=O)N[C@H]1CCCNC1 [AZD7762] (partner 0.2 µM)
Method in brief: (§1)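 Nuclei were stained with Hoechst during a one-step fixation (final 0.05% Triton X-100, 1% formaldehyde, 1 ug/ml Hoechst) carried out 5 days after dosing, then counted on 4× images. The cells, lung cancer lines in 1536-well plates, had been dosed by pin tool the day after seeding with one drug alone or a fixed anchor-drug dose plus five library-drug doses (not always all listed) in √10 steps. Relative viability is the nuclei count in treated wells divided by that in vehicle wells, and each value is the median of duplicate plates.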

Bleomycin + Foretinib = compound: CC1=C(N=C(N=C1N)[C@H](CC(=O)N)NC[C@@H](C(=O)N)N)C(=O)N[C@@H]([C@H](C2=CN=CN2)OC3C(C(C(C(O3)CO)O)O)OC4C(C(C(C(O4)CO)O)OC(=O)N)O)C(=O)N[C@H](C)[C@H]([C@H](C)C(=O)N[C@@H]([C@@H](C)O)C(=O)NCCC5=NC(=CS5)C6=NC(=CS6)C(=O)NCCC[S+](C)C)O [Bleomycin] + COc1cc2c(Oc3ccc(NC(=O)C4(C(=O)Nc5ccc(F)cc5)CC4)cc3F)ccnc2cc1OCCCN1CCOCC1 [Foretinib] (partner 0.25 µM); conditions: main component drawn
Method in brief: as §1

Etoposide + OSI-027 = compound: COc1cc([C@@H]2c3cc4c(cc3[C@@H](O[C@@H]3O[C@@H]5CO[C@@H](C)O[C@H]5[C@H](O)[C@H]3O)[C@H]3COC(=O)[C@H]23)OCO4)cc(OC)c1O [Etoposide] + COc1cccc2cc(-c3nc([C@H]4CC[C@H](C(=O)O)CC4)n4ncnc(N)c34)[nH]c12 [OSI-027] (partner 0.5 µM)
Method in brief: as §1

Bleomycin + Lapatinib = compound: CC1=C(N=C(N=C1N)[C@H](CC(=O)N)NC[C@@H](C(=O)N)N)C(=O)N[C@@H]([C@H](C2=CN=CN2)OC3C(C(C(C(O3)CO)O)O)OC4C(C(C(C(O4)CO)O)OC(=O)N)O)C(=O)N[C@H](C)[C@H]([C@H](C)C(=O)N[C@@H]([C@@H](C)O)C(=O)NCCC5=NC(=CS5)C6=NC(=CS6)C(=O)NCCC[S+](C)C)O [Bleomycin] + CS(=O)(=O)CCNCc1ccc(-c2ccc3ncnc(Nc4ccc(OCc5cccc(F)c5)c(Cl)c4)c3c2)o1 [Lapatinib] (partner 2 µM); conditions: main component drawn
Method in brief: as §1

Cell Line | relative viability (Etoposide + AZD7762; first compound 0.01 µM) | relative viability (Etoposide + AZD7762; first compound 0.03162 µM) | relative viability (Etoposide + AZD7762; first compound 0.1 µM) | relative viability (Etoposide + AZD7762; first compound 0.3162 µM) | relative viability (Etoposide + AZD7762; first compound 1 µM) | relative viability (Bleomycin + Foretinib; first compound 0.01 µM) | relative viability (Bleomycin + Foretinib; first compound 0.03162 µM) | relative viability (Bleomycin + Foretinib; first compound 0.1 µM) | relative viability (Bleomycin + Foretinib; first compound 0.3162 µM) | relative viability (Bleomycin + Foretinib; first compound 1 µM) | relative viability (Etoposide + OSI-027; first compound 0.01 µM) | relative viability (Etoposide + OSI-027; first compound 0.03162 µM) | relative viability (Etoposide + OSI-027; first compound 0.1 µM) | relative viability (Etoposide + OSI-027; first compound 0.3162 µM) | relative viability (Etoposide + OSI-027; first compound 1 µM) | relative viability (Bleomycin + Lapatinib; first compound 0.01 µM) | relative viability (Bleomycin + Lapatinib; first compound 0.03162 µM) | relative viability (Bleomycin + Lapatinib; first compound 0.1 µM) | relative viability (Bleomycin + Lapatinib; first compound 0.3162 µM) | relative viability (Bleomycin + Lapatinib; first compound 1 µM)
NCI-H441 | 1.31 | 0.966 | 1.1 | 0.512 | 0.4 | 0.72 | 0.613 | 1.08 | 0.623 | 0.46 | 0.625 | 0.638 | 0.416 | 0.267 | 0.224 |  |  |  |  | 
NCI-H520 |  |  |  |  |  | 0.677 | 0.742 | 0.743 | 0.37 | 0.537 | 0.253 | 0.209 | 0.204 | 0.292 | 0.286 | 0.715 | 0.79 | 0.833 | 0.54 | 0.43
NCI-H522 | 0.891 | 0.97 | 0.69 | 0.761 | 0.824 |  |  |  |  |  | 0.647 | 0.77 | 0.657 | 0.709 | 0.71 |  |  |  |  | 
NCI-H661 |  |  |  |  |  | 0.896 | 0.924 | 0.689 | 0.393 | 0.357 | 0.702 | 0.712 | 0.619 | 0.494 | 0.267 | 0.501 | 0.374 | 0.349 | 0.204 | 0.219
NCI-H1299 |  |  |  |  |  | 1.07 | 1.08 | 0.934 | 0.497 | 0.277 |  |  |  |  |  | 0.926 | 0.985 | 0.772 | 0.431 | 0.382
NCI-H1563 |  |  |  |  |  | 0.838 | 0.803 | 0.734 | 0.647 | 0.61 | 0.738 | 0.781 | 0.756 | 0.61 | 0.466 | 0.698 | 0.76 | 0.705 | 0.611 | 0.52
NCI-H1623 |  |  |  |  |  | 0.758 | 0.942 | 0.774 | 0.646 | 0.418 | 0.438 | 0.497 | 0.386 | 0.413 | 0.322 |  |  |  |  | 
NCI-H1648 |  | 0.762 | 0.991 | 0.722 | 0.451 |  |  |  |  |  |  | 0.269 | 0.253 | 0.289 | 0.292 |  |  |  |  | 
NCI-H1650 |  |  |  |  |  | 0.718 | 0.393 | 0.254 | 0.188 | 0.181 | 0.711 | 0.556 | 0.41 | 0.32 | 0.163 | 0.535 | 0.321 | 0.235 | 0.147 | 0.16
NCI-H1703 | 0.149 | 0.126 |  | 0.121 | 0.114 | 0.298 | 0.325 | 0.306 | 0.283 | 0.275 |  |  |  |  |  | 1.01 | 1 | 0.807 | 0.287 | 0.281
NCI-H1792 | 0.485 | 0.661 |  | 0.471 | 0.122 |  |  |  |  |  | 0.509 | 0.699 | 0.51 | 0.696 | 0.537 | 0.848 | 0.798 | 0.841 | 0.326 | 0.139
NCI-H2009 |  |  |  |  |  | 0.775 | 1.29 | 1.25 | 0.969 | 0.639 | 0.572 | 0.659 | 0.454 | 0.539 | 0.369 | 0.808 | 0.892 | 0.92 | 0.379 | 0.365
NCI-H2023 |  |  |  |  |  | 0.717 | 0.641 | 0.522 | 0.245 | 0.162 | 0.4 | 0.451 | 0.223 | 0.286 | 0.119 | 0.521 | 0.664 | 0.506 | 0.19 | 0.101
NCI-H2228 |  |  |  |  |  | 0.853 | 0.741 | 0.695 | 0.274 | 0.191 | 0.499 | 0.787 | 0.276 | 0.481 | 0.164 | 0.999 | 1.12 | 0.852 | 0.355 | 0.505
NCI-H2342 | 0.573 | 0.441 | 0.337 | 0.433 | 0.4 | 0.874 | 0.996 | 1.03 | 0.698 | 0.918 | 0.707 | 0.649 | 0.51 | 0.402 | 0.352 |  |  |  |  | 
SK-LU-1 |  |  |  |  |  | 0.704 | 0.874 | 0.815 | 0.461 | 0.365 | 0.358 | 0.373 | 0.251 | 0.174 | 0.172 | 0.745 | 0.858 | 0.709 | 0.35 | 0.347
SK-MES-1 |  |  |  |  |  | 0.907 | 0.846 | 0.765 | 0.357 | 0.237 | 0.523 | 0.616 | 0.544 | 0.437 | 0.189 | 0.506 | 0.438 | 0.407 | 0.303 | 0.255
SW 900 | 0.561 | 0.7 | 0.379 | 0.539 | 0.293 | 0.629 | 0.386 | 0.465 | 0.211 | 0.161 | 0.448 | 0.563 | 0.367 | 0.333 | 0.129 |  |  |  |  | 
SW 1573 |  |  |  |  |  | 0.811 | 0.813 | 0.748 | 0.468 | 0.308 | 0.707 | 0.593 | 0.277 | 0.265 | 0.116 | 1.05 | 0.871 | 0.84 | 0.446 | 0.4
